The values below come from patent US7470702B2, “Benzimidazoles” (Merck Patent GmbH, priority 2003, dated 2008).

The assay has as its target TIE-2 (Homo sapiens, UniProt Q02763). Kind of assay: Inhibition of TIE-2 (flashplate kinase assay, poly(Glu, Tyr) phosphorylation, 33P-ATP). In kind it is biochemical. The protocol:
The TIE-2 tests can be carried out, for example, analogously to the methods indicated in WO 02/44156.
The assay determines the inhibiting activity of the substances to be tested in the phosphorylation of the substrate poly(Glu, Tyr) by Tie-2 kinase in the presence of radioactive ^33P-ATP. The phosphorylated substrate binds to the surface of a “flashplate” microtitre plate during the incubation time. After removal of the reaction mixture, the microtitre plate is washed a number of times and the radioactivity on its surface is subsequently measured. An inhibiting effect of the substances to be measured results in lower radioactivity compared with an undisturbed enzymatic reaction.

Sequence of TIE-2 (Q02763 23-1124, species assumed): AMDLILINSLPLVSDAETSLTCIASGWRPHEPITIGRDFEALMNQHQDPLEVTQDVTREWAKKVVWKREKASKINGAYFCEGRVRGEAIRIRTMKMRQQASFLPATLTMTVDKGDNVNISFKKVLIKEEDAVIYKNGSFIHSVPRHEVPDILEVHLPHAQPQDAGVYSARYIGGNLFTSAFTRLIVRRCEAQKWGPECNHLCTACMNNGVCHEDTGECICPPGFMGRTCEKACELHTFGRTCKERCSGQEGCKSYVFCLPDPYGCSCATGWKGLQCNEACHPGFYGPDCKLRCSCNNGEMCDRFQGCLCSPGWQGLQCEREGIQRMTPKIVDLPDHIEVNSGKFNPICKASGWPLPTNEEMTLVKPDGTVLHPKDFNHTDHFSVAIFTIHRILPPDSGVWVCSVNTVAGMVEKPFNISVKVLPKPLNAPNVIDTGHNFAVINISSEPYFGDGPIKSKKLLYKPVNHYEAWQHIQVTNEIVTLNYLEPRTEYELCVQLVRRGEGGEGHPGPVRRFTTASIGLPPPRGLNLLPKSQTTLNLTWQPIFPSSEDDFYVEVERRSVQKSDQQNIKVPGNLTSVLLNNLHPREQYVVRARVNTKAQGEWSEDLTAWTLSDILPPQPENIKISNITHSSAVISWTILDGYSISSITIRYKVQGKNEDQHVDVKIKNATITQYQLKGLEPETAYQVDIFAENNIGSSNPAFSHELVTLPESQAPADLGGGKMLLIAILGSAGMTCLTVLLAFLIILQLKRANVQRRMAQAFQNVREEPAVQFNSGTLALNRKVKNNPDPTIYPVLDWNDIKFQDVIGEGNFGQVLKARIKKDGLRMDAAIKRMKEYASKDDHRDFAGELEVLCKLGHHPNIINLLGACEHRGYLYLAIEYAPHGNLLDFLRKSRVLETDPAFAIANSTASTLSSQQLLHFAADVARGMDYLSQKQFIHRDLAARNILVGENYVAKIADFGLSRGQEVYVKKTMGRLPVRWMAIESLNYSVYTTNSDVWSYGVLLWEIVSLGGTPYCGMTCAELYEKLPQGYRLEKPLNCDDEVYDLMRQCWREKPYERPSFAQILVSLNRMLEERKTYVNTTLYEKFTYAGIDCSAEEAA

As a reminder, the IC50 is the point on the concentration scale where inhibition reaches its midpoint. The molecule `Cc1ccc2nc(Nc3ccc(Oc4ccncc4)cc3)[nH]c2c1` [(3), (6-Methyl-1H-benzimidazol-2-yl)[4-(pyridin-4-yloxy)phenyl]amine] had a half-maximal inhibitory concentration (IC50) of 4000 nM.
The molecule `FC(F)(F)c1cc(Br)c2nc(Nc3ccc(Oc4ccncc4)cc3)[nH]c2c1` [(5), (4-Bromo-6-trifluoromethyl-1H-benzimidazol-2-yl)[4-(pyridin-4-yloxy)phenyl]amine] returned an IC50 of 500 nM.
Under `FC(F)(F)c1cc(Cl)c2nc(Nc3ccc(Oc4ccncc4)cc3)[nH]c2c1` [(14), (4-Chloro-6-trifluoromethyl-1H-benzimidazol-2-yl)[4-(pyridin-4-yloxy)phenyl]amine] stands 900 nM.
